Test [1] has as its system two-piece glutamine-II riboswitch (RNA, riboswitch) CGUUCACCCUUCGGGGCGCA/UGAAAUGGGAGUAGGGAACGGGAUUCUCAU
Briefly: isothermal titration calorimetry. As to conditions: 100 mM K+, 10 mM Mg2+; equimolar mixture of two strands, 40 mM HEPES-K pH 7.0, 298 K. (In general: In ITC the heat of successive injections is recorded.)

Test [2] relates to G18 O2'H glutamine-II riboswitch (RNA, riboswitch, 2'-deoxy at 18 (2'-hydroxyl of G18 removed)) CGUUCACCCUUCGGGGCGCAUGAAAUGGGAGUAGGGAACGGGAUUCUCAU
Briefly: isothermal titration calorimetry. As to conditions: 100 mM K+, 10 mM Mg2+; 40 mM HEPES-K pH 7.0, 298 K; 2-4 mM L-glutamine in syringe.

The subject of test [3] is C1Z glutamine-II riboswitch (RNA, riboswitch, zebularine at 1 (C1Z)) CGUUCACCCUUCGGGGCGCAUGAAAUGGGAGUAGGGAACGGGAUUCUCAU
Briefly: isothermal titration calorimetry. As to conditions: 100 mM K+, 10 mM Mg2+; 40 mM HEPES-K pH 7.0, 298 K; no measurable heat; 2-4 mM L-glutamine in syringe.

Test [4] relates to C39Z glutamine-II riboswitch (RNA, riboswitch, zebularine at 39 (C39Z)) CGUUCACCCUUCGGGGCGCAUGAAAUGGGAGUAGGGAACGGGAUUCUCAU
Briefly: isothermal titration calorimetry. As to conditions: 100 mM K+, 10 mM Mg2+; 40 mM HEPES-K pH 7.0, 298 K; 2-4 mM L-glutamine in syringe.

The subject of test [5] is glutamine-II riboswitch (unmodified; RNA used for calorimetry) (RNA, riboswitch) CGUUCACCCUUCGGGGCGCAUGAAAUGGGAGUAGGGAACGGGAUUCUCAU
Briefly: isothermal titration calorimetry. As to conditions: 100 mM K+, 10 mM Mg2+; 40 mM HEPES-K pH 7.0 (7.2 in Figure 4 legend), 298 K; mean of three titrations.

Test [6] relates to glutamine-II riboswitch (RNA used for crystallization) (RNA, riboswitch, 5-bromocytidine at 8 and 9) CGUUCACCCUUCGGGGCGCAUGAAAUGGGAGUAGGGAACGGGAUUCUCAU
Briefly: X-ray crystallography, 2.3 Å. To be noted: Mg2+ in PDB record; strand-exchanged dimer; metal ion directly bound to glutamine carboxylate.

As for `NC(=O)CC[C@H](N)C(=O)O`, the binding entry in test [1] is listed as “yes”; in test [2], “no”; in test [3], “no”; in test [4], “no”; in test [6], “yes”. In test [5], the Kd amounted to 190 ± 90 µM.

In general, Kd refers to the equilibrium constant for the complex coming apart.

For the origin of these results see paper PMC6698751 (2019).
